Positions of bridges follow the written chain, without caps; N, C: chain ends. Residues, ends and D or L forms follow the SMILES beside them.
What was measured:
[1] = molecular target: Nicotinic acetylcholine receptor alpha9/alpha10 (Rattus norvegicus, UniProt P43144+Q9JLB5); assay: Inhibition of rat alpha9/alpha10 nAChR expressed in Xenopus oocytes assessed as inhibition of acetylcholine-induced currents after 300 secs by two-electrode voltage clamp assay; type: cell-based, Oocyte
[2] = Inhibition of human alpha9 rat alpha10 nAChR expressed in Xenopus oocytes assessed as inhibition of acetylcholine-induced currents after 300 secs by two-electrode voltage clamp assay; type: cell-based; conditions: Oocyte
[3] = Selectivity ratio of IC50 for human alpha9 rat alpha10 nAChR to IC50 for rat alpha9/alpha10 nAChR
[4] = system: Oocyte; assay: Inhibition of human alpha9 rat alpha10 nAChR expressed in Xenopus oocytes assessed as inhibition of acetylcholine-induced currents at 100 nM after 300 secs by two-electrode voltage clamp assay; type: cell-based

Sequence of Nicotinic acetylcholine receptor alpha9/alpha10 (P43144 whole entry): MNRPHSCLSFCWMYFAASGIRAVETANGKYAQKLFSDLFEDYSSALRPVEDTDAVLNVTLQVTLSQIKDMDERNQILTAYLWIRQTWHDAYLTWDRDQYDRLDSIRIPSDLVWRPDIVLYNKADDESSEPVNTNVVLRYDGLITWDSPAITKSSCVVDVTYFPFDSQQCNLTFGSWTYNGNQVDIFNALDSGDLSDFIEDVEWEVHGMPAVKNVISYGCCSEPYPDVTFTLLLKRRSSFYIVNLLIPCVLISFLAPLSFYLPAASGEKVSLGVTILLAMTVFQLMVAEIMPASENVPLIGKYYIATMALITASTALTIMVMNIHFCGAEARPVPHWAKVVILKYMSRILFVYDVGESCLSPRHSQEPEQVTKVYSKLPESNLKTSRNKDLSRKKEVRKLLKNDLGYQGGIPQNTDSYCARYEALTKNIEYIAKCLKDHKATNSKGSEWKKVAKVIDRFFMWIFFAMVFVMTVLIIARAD
Sequence of Nicotinic acetylcholine receptor alpha9/alpha10 (Q9JLB5 whole entry): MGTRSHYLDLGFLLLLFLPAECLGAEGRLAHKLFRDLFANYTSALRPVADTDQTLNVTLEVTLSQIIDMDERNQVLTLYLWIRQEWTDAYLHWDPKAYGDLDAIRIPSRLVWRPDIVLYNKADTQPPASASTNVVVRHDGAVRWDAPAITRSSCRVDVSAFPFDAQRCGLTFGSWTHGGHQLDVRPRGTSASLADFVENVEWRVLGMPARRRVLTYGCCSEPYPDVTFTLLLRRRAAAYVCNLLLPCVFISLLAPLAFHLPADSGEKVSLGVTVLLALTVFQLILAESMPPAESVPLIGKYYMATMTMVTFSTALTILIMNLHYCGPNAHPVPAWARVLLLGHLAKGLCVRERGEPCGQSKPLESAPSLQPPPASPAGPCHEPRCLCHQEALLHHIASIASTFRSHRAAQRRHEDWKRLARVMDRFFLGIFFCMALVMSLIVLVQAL

Structure (SMILES) | IC50 [1] | IC50 [2] | Ratio IC50 [3] | inhibition [4]
CC[C@H](C)[C@@H]1NC(=O)[C@H](CCC(=O)O)NC(=O)[C@@H]2CCCN2C(=O)[C@H](Cc2cnc[nH]2)NC(=O)[C@H](CC(=O)O)NC(=O)[C@H](Cc2ccc(O)cc2)NC(=O)[C@H](CC(N)=O)NC(=O)[C@@H]2CSSC[C@H](NC(=O)CN)C(=O)N[C@@H](CSSC[C@@H](C(=O)O)NC1=O)C(=O)N[C@@H](CO)C(=O)N[C@@H](CC(=O)O)C(=O)N1CCC[C@H]1C(=O)N[C@@H](CCCNC(=N)N)C(=O)N2 | 70 nM | 975 nM | 14 | –
CC[C@H](C)[C@@H]1NC(=O)[C@H](CCC(=O)O)NC(=O)[C@@H]2CCCN2C(=O)[C@H](Cc2cnc[nH]2)NC(=O)[C@H](CC(=O)O)NC(=O)[C@H](Cc2ccccc2)NC(=O)[C@H](CC(N)=O)NC(=O)[C@@H]2CSSC[C@H](NC(=O)CN)C(=O)N[C@@H](CSSC[C@@H](C(=O)O)NC1=O)C(=O)N[C@@H](CO)C(=O)N[C@@H](CC(=O)O)C(=O)N1CCC[C@H]1C(=O)N[C@@H](CCCNC(=N)N)C(=O)N2 (H-GCCSDPRCNFDHPEIC-OH; disulfide 2-8, 3-16) | 500 nM | 763 nM | – | 10%
CC[C@H](C)[C@@H]1NC(=O)[C@H](CCC(=O)O)NC(=O)[C@@H]2CCCN2C(=O)[C@H](Cc2cnc[nH]2)NC(=O)[C@H](CC(=O)O)NC(=O)[C@H](Cc2c[nH]c3ccccc23)NC(=O)[C@H](CC(N)=O)NC(=O)[C@@H]2CSSC[C@H](NC(=O)CN)C(=O)N[C@@H](CSSC[C@@H](C(=O)O)NC1=O)C(=O)N[C@@H](CO)C(=O)N[C@@H](CC(=O)O)C(=O)N1CCC[C@H]1C(=O)N[C@@H](CCCNC(=N)N)C(=O)N2 (H-GCCSDPRCNWDHPEIC-OH; disulfide 2-8, 3-16) | 43 nM | 33 nM | – | 80%
